Test results published in US20110144049A1, “Treating Cardiac Arrhythmias, Heart Failure, Peripheral Artery Disease and Stroke with Cyclopentyl-Triazolo-Pyrimidine or Derivative Thereof” (priority 2009, published 2011).

Tests used:
[1] = system: randomized patients; experiment: Listed Causes of Death from Efficacy Data Set (by randomized treatment); type: in vivo; conditions: Ticagrelor 90 mg bd N = 9333; Clopidcgrel 75 mg cd N = 9291
Source text: Causes of death were similar between treatment groups. The most common cause of death was myocardial infarction occurring in about 1% of randomized patients. Sudden death, heart failure, other vascular events and stroke were among the more common causes of death.

[2] = system: individuals undergoing coronary stent implantation for therapy of Acute Coronary Syndrome (ASC); experiment: large randomized study, primary end point (death from vascular causes, MI or stroke); type: in vivo

CCCSc1nc(N[C@@H]2C[C@H]2c2ccc(F)c(F)c2)c2nnn([C@@H]3C[C@H](OCCO)[C@@H](O)[C@H]3O)c2n1 [Ticagrelor, (1S,2S,3R,5S)-3-[7-[(1R,2S)-2-(3,4-Difluorophenyl)cyclopropylamino]-5-(propylthio)-3H-[1,2,3]triazolo[4,5-d]pyrimidin-3-yl]-5-(2-hydroxyethoxy)cyclopentane-1,2-diol]
Cause of death: Aortic dissection, number [1]: 1 | Cause of death: Aortic dissection, percent [1]: (0.0%) | Cause of death: Arterial embolism, number [1]: 0 | Cause of death: Arterial embolism, percent [1]: (0.0%) | Cause of death: Cancer, number [1]: 14 | Cause of death: Cancer, percent [1]: (0.2%) | Cause of death: Cardiac arrhythmia, number [1]: 20 | Cause of death: Cardiac arrhythmia, percent [1]: (0.2%) | Cause of death: Death from bleeding (not related to trauma), number [1]: 13 | Cause of death: Death from bleeding (not related to trauma), percent [1]: (0.1%) | Cause of death: Endocarditis, number [1]: 0 | Cause of death: Endocarditis, percent [1]: (0.0%) | Cause of death: Heart failure, number [1]: 51 | Cause of death: Heart failure, percent [1]: (0.5%) | Cause of death: Liver failure, number [1]: 0 | Cause of death: Liver failure, percent [1]: (0.0%) | Cause of death: Multiorgan failure, number [1]: 9 | Cause of death: Multiorgan failure, percent [1]: (0.1%) | Cause of death: Myocardial infarction, number [1]: 89 | Cause of death: Myocardial infarction, percent [1]: (1.0%) | Cause of death: Other coronary artery disease, number [1]: 4 | Cause of death: Other coronary artery disease, percent [1]: (0.0%) | Cause of death: Other non-vascular cause, number [1]: 8 | Cause of death: Other non-vascular cause, percent [1]: (0.1%) | Cause of death: Other vascular cause, number [1]: 44 | Cause of death: Other vascular cause, percent [1]: (0.5%) | Cause of death: Pneumonia, number [1]: 10 | Cause of death: Pneumonia, percent [1]: (0.1%) | Cause of death: Pulmonary embolism, number [1]: 3 | Cause of death: Pulmonary embolism, percent [1]: (0.0%) | Cause of death: Renal failure, number [1]: 2 | Cause of death: Renal failure, percent [1]: (0.0%) | Cause of death: Respiratory failure, number [1]: 13 | Cause of death: Respiratory failure, percent [1]: (0.1%) | Cause of death: Ruptured aortic aneurysm, number [1]: 1 | Cause of death: Ruptured aortic aneurysm, percent [1]: (0.0%) | Cause of death: Sepsis, number [1]: 7 | Cause of death: Sepsis, percent [1]: (0.1%) | Cause of death: Stroke, number [1]: 20 | Cause of death: Stroke, percent [1]: (0.2%) | Cause of death: Sudden death, number [1]: 60 | Cause of death: Sudden death, percent [1]: (0.6%) | Cause of death: Suicida, number [1]: 1 | Cause of death: Suicida, percent [1]: (0.0%) | Cause of death: Trauma, number [1]: 3 | Cause of death: Trauma, percent [1]: (0.0%) | Cause of death: Unknown, number [1]: 39 | Cause of death: Unknown, percent [1]: (0.4%) | Cause of death: Unstable angina, number [1]: 7 | Cause of death: Unstable angina, percent [1]: (0.1%) | Cause of death: Valvular disease, number [1]: 0 | Cause of death: Valvular disease, percent [1]: (0.0%) | Cause of death: Vascular death, sub-classification missing, number [1]: 0 | Cause of death: Vascular death, sub-classification missing, percent [1]: (0.0%)

COC(=O)[C@H](c1ccccc1Cl)N1CCc2sccc2C1 [clopidogrel]
primary end point: first event of death from vascular causes, myocardial infarction (MI) or stroke, occurred in % of patients [2]: 11.7% | Cause of death: Aortic dissection, number [1]: 2 | Cause of death: Aortic dissection, percent [1]: (0.0%) | Cause of death: Arterial embolism, number [1]: 2 | Cause of death: Arterial embolism, percent [1]: (0.0%) | Cause of death: Cancer, number [1]: 17 | Cause of death: Cancer, percent [1]: (0.2%) | Cause of death: Cardiac arrhythmia, number [1]: 29 | Cause of death: Cardiac arrhythmia, percent [1]: (0.3%) | Cause of death: Death from bleeding (not related to trauma), number [1]: 15 | Cause of death: Death from bleeding (not related to trauma), percent [1]: (0.2%) | Cause of death: Endocarditis, number [1]: 0 | Cause of death: Endocarditis, percent [1]: (0.0%) | Cause of death: Heart failure, number [1]: 62 | Cause of death: Heart failure, percent [1]: (0.7%) | Cause of death: Liver failure, number [1]: 1 | Cause of death: Liver failure, percent [1]: (0.0%) | Cause of death: Multiorgan failure, number [1]: 14 | Cause of death: Multiorgan failure, percent [1]: (0.2%) | Cause of death: Myocardial infarction, number [1]: 89 | Cause of death: Myocardial infarction, percent [1]: (0.9%) | Cause of death: Other coronary artery disease, number [1]: 4 | Cause of death: Other coronary artery disease, percent [1]: (0.0%) | Cause of death: Other non-vascular cause, number [1]: 11 | Cause of death: Other non-vascular cause, percent [1]: (0.1%) | Cause of death: Other vascular cause, number [1]: 55 | Cause of death: Other vascular cause, percent [1]: (0.6%) | Cause of death: Pneumonia, number [1]: 8 | Cause of death: Pneumonia, percent [1]: (0.1%) | Cause of death: Pulmonary embolism, number [1]: 8 | Cause of death: Pulmonary embolism, percent [1]: (0.1%) | Cause of death: Renal failure, number [1]: 5 | Cause of death: Renal failure, percent [1]: (0.1%) | Cause of death: Respiratory failure, number [1]: 12 | Cause of death: Respiratory failure, percent [1]: (0.1%) | Cause of death: Ruptured aortic aneurysm, number [1]: 0 | Cause of death: Ruptured aortic aneurysm, percent [1]: (0.0%) | Cause of death: Sepsis, number [1]: 23 | Cause of death: Sepsis, percent [1]: (0.2%) | Cause of death: Stroke, number [1]: 18 | Cause of death: Stroke, percent [1]: (0.2%) | Cause of death: Sudden death, number [1]: 77 | Cause of death: Sudden death, percent [1]: (0.8%) | Cause of death: Suicida, number [1]: 1 | Cause of death: Suicida, percent [1]: (0.0%) | Cause of death: Trauma, number [1]: 1 | Cause of death: Trauma, percent [1]: (0.0%) | Cause of death: Unknown, number [1]: 58 | Cause of death: Unknown, percent [1]: (0.6%) | Cause of death: Unstable angina, number [1]: 8 | Cause of death: Unstable angina, percent [1]: (0.1%) | Cause of death: Valvular disease, number [1]: 1 | Cause of death: Valvular disease, percent [1]: (0.0%) | Cause of death: Vascular death, sub-classification missing, number [1]: 1 | Cause of death: Vascular death, sub-classification missing, percent [1]: (0.0%)
